ChEMBL document CHEMBL1201862, “PubChem BioAssay data set” (2004)
Activity calls are given as the source filed them. Cut-off read from the data, not from the text of the source, for most assays here: actives have a measured EC50 and inactives only a lower limit.

How the values were obtained:
[1] = molecular target: T1, RNA-binding protein pos-1 (Caenorhabditis elegans, UniProt G5EF15); assay: inhibitors of POS-1/mex-3 RNA binding, dose response, biochemical, fluorescence polarization (AID 1964);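 note: purified POS-1 fused to maltose binding protein made in E. coli; potency of compounds blocking POS-1 binding to fluorescent RNA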
T1 sequence (G5EF15 whole entry): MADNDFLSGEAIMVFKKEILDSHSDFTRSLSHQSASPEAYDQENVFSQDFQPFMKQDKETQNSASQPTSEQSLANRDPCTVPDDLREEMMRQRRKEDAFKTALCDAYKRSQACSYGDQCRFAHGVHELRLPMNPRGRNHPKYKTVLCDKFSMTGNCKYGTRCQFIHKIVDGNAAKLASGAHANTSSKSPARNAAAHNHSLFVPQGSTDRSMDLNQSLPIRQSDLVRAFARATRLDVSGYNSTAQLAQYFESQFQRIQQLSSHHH

[2] = molecular target: T2, Zinc finger protein mex-5 (Caenorhabditis elegans, UniProt Q9XUB2); assay: MEX-5/TCR-2 RNA interaction inhibitors, dose response, biochemical, C. elegans, fluorescence polarization (AID 1960)
T2 sequence (Q9XUB2 whole entry): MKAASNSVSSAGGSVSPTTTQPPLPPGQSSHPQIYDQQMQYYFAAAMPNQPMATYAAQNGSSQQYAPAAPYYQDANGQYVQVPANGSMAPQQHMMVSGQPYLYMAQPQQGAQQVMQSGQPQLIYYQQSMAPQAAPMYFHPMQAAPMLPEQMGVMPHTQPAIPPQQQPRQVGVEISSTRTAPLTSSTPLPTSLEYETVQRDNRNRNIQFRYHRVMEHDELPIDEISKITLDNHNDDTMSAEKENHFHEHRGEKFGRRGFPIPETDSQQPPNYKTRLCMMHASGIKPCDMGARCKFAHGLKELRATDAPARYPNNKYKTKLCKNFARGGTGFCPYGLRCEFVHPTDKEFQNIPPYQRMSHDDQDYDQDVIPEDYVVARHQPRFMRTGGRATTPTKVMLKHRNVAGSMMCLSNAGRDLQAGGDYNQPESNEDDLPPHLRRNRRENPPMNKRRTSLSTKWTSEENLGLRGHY

[3] = molecular target: T3, Heat shock factor protein 1 (Mus musculus, UniProt P38532); assay: inhibition of MG132-induced HSE-luciferase signal, confirmation, cell-based, NIH3T3, luminescence, dose retest (AID 2382); format: functional;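 note: NIH3T3 fibroblasts with HSF1-driven luciferase reporter stressed by proteasome inhibitor MG132; luminescence from HSF1-driven luciferase expression after 8 hours of MG132 stress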
T3 sequence (P38532 whole entry): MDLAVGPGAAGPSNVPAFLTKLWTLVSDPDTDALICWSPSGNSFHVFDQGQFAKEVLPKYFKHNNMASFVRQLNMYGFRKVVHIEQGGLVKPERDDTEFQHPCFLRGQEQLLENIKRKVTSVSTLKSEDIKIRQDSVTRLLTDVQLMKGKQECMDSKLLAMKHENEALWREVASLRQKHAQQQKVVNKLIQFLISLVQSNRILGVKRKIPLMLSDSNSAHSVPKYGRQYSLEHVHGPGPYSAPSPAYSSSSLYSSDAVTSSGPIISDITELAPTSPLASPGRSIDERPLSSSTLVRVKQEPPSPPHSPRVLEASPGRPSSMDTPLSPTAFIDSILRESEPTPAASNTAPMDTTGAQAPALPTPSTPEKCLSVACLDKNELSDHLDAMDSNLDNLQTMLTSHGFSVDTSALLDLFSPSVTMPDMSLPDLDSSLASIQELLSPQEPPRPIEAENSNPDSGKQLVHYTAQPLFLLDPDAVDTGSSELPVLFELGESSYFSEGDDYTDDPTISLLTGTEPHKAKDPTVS

[4] = molecular target: T4, Replicative DNA helicase DnaB (Mycobacterium tuberculosis, UniProt P9WMR3); assay: DnaB intein splicing inhibitors, dose response, biochemical, cell-free fluorescence (AID 449749); format: functional
T4 sequence (P9WMR3 whole entry): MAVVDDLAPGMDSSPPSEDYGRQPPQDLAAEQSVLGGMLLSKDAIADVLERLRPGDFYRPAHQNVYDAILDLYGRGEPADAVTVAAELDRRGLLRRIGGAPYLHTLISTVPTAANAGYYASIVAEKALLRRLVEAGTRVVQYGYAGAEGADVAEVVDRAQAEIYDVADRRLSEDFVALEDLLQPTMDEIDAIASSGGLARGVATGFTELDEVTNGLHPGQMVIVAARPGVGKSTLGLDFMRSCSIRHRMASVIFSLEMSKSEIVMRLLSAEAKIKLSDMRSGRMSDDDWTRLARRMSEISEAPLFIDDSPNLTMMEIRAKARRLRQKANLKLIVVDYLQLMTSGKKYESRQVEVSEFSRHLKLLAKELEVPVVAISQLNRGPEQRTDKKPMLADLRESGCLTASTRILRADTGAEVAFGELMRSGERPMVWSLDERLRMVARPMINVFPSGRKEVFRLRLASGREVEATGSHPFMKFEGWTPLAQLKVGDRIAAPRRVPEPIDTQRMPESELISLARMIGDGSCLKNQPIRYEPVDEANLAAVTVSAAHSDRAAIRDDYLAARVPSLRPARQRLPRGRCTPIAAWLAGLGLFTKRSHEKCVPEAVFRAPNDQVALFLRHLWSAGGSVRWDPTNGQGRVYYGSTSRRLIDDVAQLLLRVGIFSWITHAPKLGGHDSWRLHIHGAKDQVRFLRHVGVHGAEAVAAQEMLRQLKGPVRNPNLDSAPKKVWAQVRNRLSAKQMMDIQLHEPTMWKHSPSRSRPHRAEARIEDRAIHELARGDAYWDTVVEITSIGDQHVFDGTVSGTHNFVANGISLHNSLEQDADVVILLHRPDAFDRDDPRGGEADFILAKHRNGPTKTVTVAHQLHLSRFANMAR

Protein RecA = molecular target: T5, Protein RecA (Mycobacterium tuberculosis, UniProt P9WHJ3); assay: Fluorescence Cell-Free Homogeneous Dose Retest to Identify Inhibitors of RecA-Intein Splicing Activity. [Related pubchem assays (depositor defined):AID2097, AID2223, AID489010, AID492950]; format: functional
T5 sequence (P9WHJ3 whole entry): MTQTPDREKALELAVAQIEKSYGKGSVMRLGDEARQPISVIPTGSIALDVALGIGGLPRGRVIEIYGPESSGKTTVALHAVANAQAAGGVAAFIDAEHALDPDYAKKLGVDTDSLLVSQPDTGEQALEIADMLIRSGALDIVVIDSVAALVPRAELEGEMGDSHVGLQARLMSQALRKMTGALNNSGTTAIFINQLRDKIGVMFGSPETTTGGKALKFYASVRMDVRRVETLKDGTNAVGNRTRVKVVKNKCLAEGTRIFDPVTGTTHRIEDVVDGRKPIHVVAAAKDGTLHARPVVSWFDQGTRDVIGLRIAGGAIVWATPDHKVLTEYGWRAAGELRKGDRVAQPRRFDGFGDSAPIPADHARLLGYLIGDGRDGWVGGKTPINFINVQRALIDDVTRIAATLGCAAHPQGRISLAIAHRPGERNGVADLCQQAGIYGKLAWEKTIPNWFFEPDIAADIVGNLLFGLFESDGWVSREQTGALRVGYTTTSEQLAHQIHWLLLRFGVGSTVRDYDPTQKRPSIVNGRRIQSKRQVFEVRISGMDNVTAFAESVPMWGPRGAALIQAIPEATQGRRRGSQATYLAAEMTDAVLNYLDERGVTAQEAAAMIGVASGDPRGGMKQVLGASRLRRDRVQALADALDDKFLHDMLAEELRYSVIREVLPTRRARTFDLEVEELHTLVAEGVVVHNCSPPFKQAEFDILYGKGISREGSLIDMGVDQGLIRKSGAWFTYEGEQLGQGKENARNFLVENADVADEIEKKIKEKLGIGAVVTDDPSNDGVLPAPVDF

Genome polyprotein = Genome polyprotein (dengue virus type 2, UniProt P29990); assay: Dengue-2 NS5 methyltransferase inhibitors, primary screen, biochemical, confirmation dose response (AID 588689); format: functional
[5] = molecular target: T6, Ubiquitin-conjugating enzyme E2 N (Homo sapiens, UniProt P61088); format: functional;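 note: Dose-response confirmation in a TR-FRET assay detecting UBC13-driven polyubiquitin chain formation, inhibition measured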
T6 sequence (P61088 whole entry): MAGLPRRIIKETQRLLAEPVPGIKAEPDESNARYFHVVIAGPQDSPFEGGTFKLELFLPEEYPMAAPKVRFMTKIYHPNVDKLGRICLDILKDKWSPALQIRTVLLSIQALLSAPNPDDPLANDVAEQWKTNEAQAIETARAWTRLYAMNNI

Genome polyprotein, sequence (P29990 2492-3391 limits assumed): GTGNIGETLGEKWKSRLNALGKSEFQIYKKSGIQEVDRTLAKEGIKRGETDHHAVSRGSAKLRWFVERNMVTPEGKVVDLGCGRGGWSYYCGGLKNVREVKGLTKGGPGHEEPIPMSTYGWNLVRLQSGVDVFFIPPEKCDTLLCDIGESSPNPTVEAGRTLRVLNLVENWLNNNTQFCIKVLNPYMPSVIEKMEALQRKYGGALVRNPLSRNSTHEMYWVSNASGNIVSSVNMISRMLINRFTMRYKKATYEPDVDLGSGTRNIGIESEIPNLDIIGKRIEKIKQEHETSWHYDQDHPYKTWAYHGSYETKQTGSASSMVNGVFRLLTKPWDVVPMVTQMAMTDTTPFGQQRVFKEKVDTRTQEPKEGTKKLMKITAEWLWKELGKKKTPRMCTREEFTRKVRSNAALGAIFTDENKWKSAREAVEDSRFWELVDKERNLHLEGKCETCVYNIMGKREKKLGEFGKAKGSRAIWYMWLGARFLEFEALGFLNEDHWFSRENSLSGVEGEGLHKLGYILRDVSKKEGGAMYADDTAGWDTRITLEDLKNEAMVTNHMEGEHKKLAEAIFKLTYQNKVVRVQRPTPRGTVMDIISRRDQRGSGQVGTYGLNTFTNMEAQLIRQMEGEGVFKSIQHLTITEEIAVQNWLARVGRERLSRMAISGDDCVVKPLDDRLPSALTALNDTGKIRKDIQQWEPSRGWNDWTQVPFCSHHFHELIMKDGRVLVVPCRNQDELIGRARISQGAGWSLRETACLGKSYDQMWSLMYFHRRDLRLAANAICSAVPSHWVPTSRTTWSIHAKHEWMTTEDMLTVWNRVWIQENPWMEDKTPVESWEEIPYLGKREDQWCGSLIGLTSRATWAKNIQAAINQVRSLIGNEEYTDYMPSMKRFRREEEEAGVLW

In the case of CCCCC1=CC2=C(c3ccco3)C(=O)C(C)(OC(=O)c3ccc(OC)cc3)C(=O)C2=CN1C1CC1 (stereo unspecified), the EC50 [1] is reported as > 300 µM (not active) and the EC50 [2] is reported as > 300 µM (not active).
With CCc1cc(=O)oc2cc(C)cc(OC(C)C(=O)O)c12 (stereo unspecified) the EC50 [1] was > 300 µM (not active) and the EC50 [2] was > 300 µM (not active).
CC1=NN(c2ccccc2)C(=O)C1N=Nc1ccc(S(N)(=O)=O)cc1 (stereo unspecified) was tested, and the EC50 [3] was > 195 µM (not active).
In the case of Cc1ccccc1N1C(=O)C(Cl)=C(N2CCOCC2)C1=O, the AC50 [4] is reported as 13 µM (active), the EC50 (Protein RecA) is reported as 4.98 µM (active) and the IC50 (Genome polyprotein) is reported as 43.7 µM (active).
For O=C(Nc1cc(S(=O)(=O)N2CCOCC2)ccc1O)c1ccc2c(c1)S(=O)(=O)c1ccccc1C2=O, the IC50 (Genome polyprotein) was 49.6 µM (active).
For O=C(CSc1nnc(COc2ccc3c(c2)CCCC3)o1)Nc1ccc(F)cc1, the EC50 [3] was > 195 µM (not active).
In the case of O=C(N1CCOCC1)N1CCC(n2nnc3cc(F)ccc32)CC1, the EC50 [1] is reported as 39.2 µM (active) and the EC50 [2] is reported as 46.7 µM (inconclusive).
In the case of COc1cc(SC)ccc1C(=O)NCC1CCCO1 (stereo unspecified), the EC50 [3] is reported as > 195 µM (not active).
CC(=O)c1ccc(OCCCC(=O)NNC(=O)c2ccccn2)cc1 was tested, and the IC50 [5] was > 20 µM (inactive).
In the case of CCNC(=O)c1ccccc1NC(=O)c1cccc(S(=O)(=O)N2CCC(C)CC2)c1, the IC50 [5] is reported as > 20 µM (inactive).
In the case of O=C(O)CCc1ccc(-c2ccc(Br)cc2)n1-c1ccc(O)cc1, the IC50 (Genome polyprotein) is reported as > 100 µM (active).
